# From patent US9351983B2, “Use of glycerophosphoinositols for the treatment of septic shock” (CONSIGLIO NAZIONALE DELLE RICERCHE, priority 2012, dated 2016)
# Columns and labels:
# human monocytes = experiment: In vitro model of human innate immunity inflammation: morphology and viability by light microscopy; format: cell-based; settings: 300 μM, added 20 minutes before LPS, IL-10 and TGF-β; images at 2 h, 14 h, 24 h, 48 h; one donor, preliminary
# From the text: FIG. 13—The in vitro model of human innate immunity inflammation. Schematic representation and timing of the in vitro stimulation of human monocytes. In order to mimic the microenvironmental changes and the timing of human host response that covers the different phases of the inflammatory reaction, from recruitment and onset, to development and resolution of inflammation, cultured cells have been exposed to sequential changes of microenvironmental conditions. Monocytes in culture were exposed to chemokine C-C motif ligand 2 (CCL2), responsible for monocytes recruitment to sites of injury through endothelial cells adhesion, lipopolysaccharide (LPS), as a pathogen insult, tumor necrosis factor α (TNFα) and interferon γ (IFN-γ) as inducers of acute phase of inflammation and finally with interleukin 10 (IL-10) and transforming growth factor β (TGF-β), responsible for the resolution of inflammation. In detail: at time zero freshly isolated human monocytes were exposed to CCL2 (20 ng/ml) at 37° C. […]
# Freshly isolated human monocytes, which have been used for all the above-mentioned experiments, were purified from buffy coat prepared at I.N.T. Pascale in Naples. […] The viability of cells was determined by trypan blue staining. The purity of isolated cells (98%) was microscopically detected after centrifugation and staining with modified Wright-Giemsa dye (Diff Quick, Medion Diagnostic AG). […]
# [1] = tested on: Interleukin-1 receptor α (IL-1Rα) gene expression; experiment: In vitro model of human inflammation: real-time PCR of IL-1Rα; format: cell-based; settings: 300 μM; 4 h, 14 h, 24 h, 48 h; one donor, preliminary
# Description: FIG. 15—Glycerophosphoinositol modulates the kinetic transcriptional profile of genes involved in the regulation of inflammatory response. Human monocytes were purified from one donor and treated according to the in vitro model of human inflammation, previously described, in absence (blue line) or in presence (red line) of 300 μM glycerophosphoinositol. In detail glycerophosphoinositol was added to cells in culture 20 minutes before LPS, IL-10 and TGF-β, that is, again after each wash. Samples were collected at time 4 h, 14 h, 24 h, 48 h; freshly isolated monocytes have been considered as control at time 0 h. Total RNA was extracted from cells by RNeasy kit (Qiagen) and reverse-transcribed to cDNA (QuantiTect Reverse Transcription kit, Qiagen). […] Each sample was measured in triplicate and data were analyzed with Pfaffl methods for comparing relative expression data. The measurement of mRNA expression was expressed as fold-increase over control (time 0 h). […]
# Total RNA was extracted with RNeasy kit (Qiagen) according to the manufacturer's instructions. Both integrity and quality of total RNA were checked by agarose gel electrophoresis and the concentration of each RNA sample was assessed spectrophotometrically. Total RNAs were reverse-transcribed to cDNA (QuantiTect Reverse Transcription kit, Qiagen) with oligo-dT and random primers, according to manufacturer's protocol. […]
structure (smiles),measurement,setting,value
"O=P(O)(OCC(O)CO)OC1C(O)C(O)C(O)C(O)C1O (centres unmarked) [GroPIns, glycerophosphoinositol]",cellular viability (light microscopy),human monocytes,cellular viability increased
same,IL-1Rα mRNA expression,[1],favoured the expression
